These results are taken from patent US11866430B2, “Naphthyridinone compounds useful as T cell activators” (priority 2018, dated 2024).

The IC50 is the point on the concentration scale where inhibition reaches its midpoint.

Each structure is given as a SMILES string.

For assay [1], the target named is human DGKα (Homo sapiens (Human), UniProt P23743). Put plainly: biochemical. To be noted: detergent/lipid micelle substrate; read-out: DGKα IC50. The essentials:
(§1)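 Enzymes were baculovirus/Sf9 full-length human DGKα or DGKζ with His tag. The substrate was PS/DAG in octyl glucoside micelles, in MOPS pH 7.5 buffer with NaCl, MgCl2, CaCl2 and DTT.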

In assay [2] the target is human DGKζ (Homo sapiens (Human), UniProt Q13574). Put plainly: DGKζ assay (detergent/lipid micelle substrate). To be noted: detergent/lipid micelle substrate; read-out: DGKζ IC50. The assay is classed as biochemical. The essentials:
as §1

Assay [3] deals with pre-activated CD4 T cells and Raji cells. As to the kind of experiment: Raji CD4 T Cell IL2 Assay. The assay is classed as cell-based. To be noted: Homo sapiens, Raji.

Chain of human DGKα (P23743 other isoform, or with tags, fused parts or gaps): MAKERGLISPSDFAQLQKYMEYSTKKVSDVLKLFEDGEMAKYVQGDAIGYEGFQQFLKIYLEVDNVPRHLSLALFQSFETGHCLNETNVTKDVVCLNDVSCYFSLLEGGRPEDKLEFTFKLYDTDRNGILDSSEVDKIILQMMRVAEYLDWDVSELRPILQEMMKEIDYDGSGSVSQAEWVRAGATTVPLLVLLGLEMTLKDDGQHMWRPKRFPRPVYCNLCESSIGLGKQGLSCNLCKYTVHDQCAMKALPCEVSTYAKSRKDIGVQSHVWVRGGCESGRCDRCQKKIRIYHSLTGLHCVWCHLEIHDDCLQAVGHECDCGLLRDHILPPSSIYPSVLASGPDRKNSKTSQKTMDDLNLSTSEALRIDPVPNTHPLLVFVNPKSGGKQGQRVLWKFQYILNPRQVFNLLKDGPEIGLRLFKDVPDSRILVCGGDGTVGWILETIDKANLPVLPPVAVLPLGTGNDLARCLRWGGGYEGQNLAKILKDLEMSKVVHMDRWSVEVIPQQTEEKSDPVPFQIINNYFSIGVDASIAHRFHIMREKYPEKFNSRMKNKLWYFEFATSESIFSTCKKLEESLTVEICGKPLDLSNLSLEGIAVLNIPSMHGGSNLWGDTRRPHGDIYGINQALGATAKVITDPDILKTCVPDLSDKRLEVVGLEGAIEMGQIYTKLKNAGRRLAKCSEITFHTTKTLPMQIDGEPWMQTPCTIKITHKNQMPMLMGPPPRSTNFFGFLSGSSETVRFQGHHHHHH
Chain of human DGKζ (Q13574 other isoform, or with tags, fused parts or gaps): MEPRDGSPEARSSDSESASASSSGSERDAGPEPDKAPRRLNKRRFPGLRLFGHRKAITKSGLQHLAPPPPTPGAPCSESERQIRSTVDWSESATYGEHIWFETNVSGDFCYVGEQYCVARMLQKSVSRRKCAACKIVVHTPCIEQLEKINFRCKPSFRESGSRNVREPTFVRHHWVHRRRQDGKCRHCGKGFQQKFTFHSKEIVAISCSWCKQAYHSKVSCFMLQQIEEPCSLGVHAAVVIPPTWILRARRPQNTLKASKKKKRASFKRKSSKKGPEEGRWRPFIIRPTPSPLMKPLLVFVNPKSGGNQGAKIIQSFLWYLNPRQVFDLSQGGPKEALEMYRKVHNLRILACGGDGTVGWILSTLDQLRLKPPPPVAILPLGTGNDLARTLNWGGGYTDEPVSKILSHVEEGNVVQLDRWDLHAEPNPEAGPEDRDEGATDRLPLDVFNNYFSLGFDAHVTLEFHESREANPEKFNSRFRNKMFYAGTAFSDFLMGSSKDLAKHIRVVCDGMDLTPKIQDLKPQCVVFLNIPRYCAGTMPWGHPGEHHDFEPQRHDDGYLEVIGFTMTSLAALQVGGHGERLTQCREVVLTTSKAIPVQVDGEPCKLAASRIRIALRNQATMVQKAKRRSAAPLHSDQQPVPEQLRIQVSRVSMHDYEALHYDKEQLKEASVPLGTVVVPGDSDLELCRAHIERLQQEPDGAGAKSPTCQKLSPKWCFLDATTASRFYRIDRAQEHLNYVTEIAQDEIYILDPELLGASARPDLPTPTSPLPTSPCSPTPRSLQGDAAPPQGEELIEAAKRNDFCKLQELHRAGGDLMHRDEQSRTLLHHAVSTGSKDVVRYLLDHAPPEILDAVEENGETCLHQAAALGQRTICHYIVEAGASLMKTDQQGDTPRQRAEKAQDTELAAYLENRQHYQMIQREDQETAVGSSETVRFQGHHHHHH

Consider `Cn1c(=O)c(C#N)c(N2CCN(Cc3ccccc3F)CC2)c2nc(Cl)ccc21` [Example 339, 6-chloro-4-{4-[(2-fluorophenyl)methyl]piperazin-1-yl}-1-methyl-2-oxo-1,2-dihydro-1,5-naphthyridine-3-carbonitrile], for which the IC50 was 570 nM in assay [1], more than 240000 nM in assay [2] and 650 nM in assay [3].
As for `COc1ccc(CN2CCN(c3c(C#N)c(=O)n(C)c4ccc(Cl)nc34)CC2)cc1` [Example 341, 6-chloro-4-{4-[(4-methoxyphenyl)methyl]piperazin-1-yl}-1-methyl-2-oxo-1,2-dihydro-1,5-naphthyridine-3-carbonitrile], the IC50 is 320 nM in assay [1], more than 240000 nM in assay [2] and 730 nM in assay [3].
On to `Cn1c(=O)c([N+](=O)[O-])c(N2CCN(C3(c4ccc(F)cc4)CC3)CC2)c2nc(C#N)ccc21` [Example 342, 8-{4-[1-(4-fluorophenyl)cyclopropyl]piperazin-1-yl}-5-methyl-7-nitro-6-oxo-5,6-dihydro-1,5-naphthyridine-2-carbonitrile], for which the IC50 in assay [1] was 28000 nM; in assay [2], more than 240000 nM; in assay [3], 790 nM.
Turning to `Cn1c(=O)c(C#N)c(N2CCN(Cc3ccccc3)CC2)c2nc(Cl)ccc21` [Example 343, 4-(4-benzylpiperazin-1-yl)-6-chloro-1-methyl-2-oxo-1,2-dihydro-1,5-naphthyridine-3-carbonitrile], the IC50 was 68 nM in assay [1], more than 81000 nM in assay [2] and 810 nM in assay [3].
Consider `Cn1c(=O)c(C#N)c(N2CCN(Cc3ccccc3F)CC2)c2nc(Br)ccc21` [Example 344, 6-bromo-4-{4-[(2-fluorophenyl)methyl]piperazin-1-yl}-1-methyl-2-oxo-1,2-dihydro-1,5-naphthyridine-3-carbonitrile], for which the IC50 in assay [1] is 400 nM; in assay [2], more than 240000 nM; in assay [3], 820 nM.
On the same counts, the results for `Cn1c(=O)c(C#N)c(N2CCN(Cc3cc(O)cc(Cl)c3)CC2)c2nc(Cl)ccc21` [Example 345, 6-chloro-4-{4-[(3-chloro-5-hydroxyphenyl)methyl]piperazin-1-yl}-1-methyl-2-oxo-1,2-dihydro-1,5-naphthyridine-3-carbonitrile] are 4600 nM, more than 240000 nM and 990 nM.
For `Cc1ccccc1CN1CCN(c2c(C#N)c(=O)n(C)c3ccc(Cl)nc23)CC1` [Example 346, 6-chloro-1-methyl-4-{4-[(2-methylphenyl)methyl]piperazin-1-yl}-2-oxo-1,2-dihydro-1,5-naphthyridine-3-carbonitrile], the IC50 in assay [1] was 5300 nM; in assay [2] it was more than 240000 nM; in assay [3] it was 1100 nM.
With `Cn1c(=O)c(C#N)c(N2CCN(Cc3ccc(F)c(O)c3)CC2)c2nc(Cl)ccc21` [Example 348, 6-chloro-4-{4-[(4-fluoro-3-hydroxyphenyl)methyl]piperazin-1-yl}-1-methyl-2-oxo-1,2-dihydro-1,5-naphthyridine-3-carbonitrile], the IC50 in assay [1] is 220 nM; in assay [2] it was 140000 nM; in assay [3], 1300 nM.
With `Cn1c(=O)c(C#N)c(N2CCN(Cc3ccc(F)cc3F)CC2)c2nc(Cl)ccc21` [Example 350, 6-chloro-4-{4-[(2,4-difluorophenyl)methyl]piperazin-1-yl}-1-methyl-2-oxo-1,2-dihydro-1,5-naphthyridine-3-carbonitrile], the 50% inhibitory concentration (IC50) was 1200 nM in assay [1], more than 81000 nM in assay [2] and 1500 nM in assay [3].
Turning to `Cn1c(=O)c(C#N)c(N2CCN(Cc3cccc(O)c3)CC2)c2nc(Cl)ccc21` [Example 351, 6-chloro-4-{4-[(3-hydroxyphenyl)methyl]piperazin-1-yl}-1-methyl-2-oxo-1,2-dihydro-1,5-naphthyridine-3-carbonitrile], the IC50 turned out to be 360 nM in assay [1], 190000 nM in assay [2] and 1500 nM in assay [3].
On the same counts, the results for `COc1cccc(CN2CCN(c3c(C#N)c(=O)n(C)c4ccc(C)nc34)CC2)c1O` [Example 352, 4-{4-[(2-hydroxy-3-methoxyphenyl)methyl]piperazin-1-yl}-1,6-dimethyl-2-oxo-1,2-dihydro-1,5-naphthyridine-3-carbonitrile] are 700 nM, more than 81000 nM and 1600 nM.
Take `COc1ccc(CN2CCN(c3c(C#N)c(=O)n(C)c4ccc(Cl)nc34)CC2)cc1O` [Example 353, 6-chloro-4-{4-[(3-hydroxy-4-methoxyphenyl)methyl]piperazin-1-yl}-1-methyl-2-oxo-1,2-dihydro-1,5-naphthyridine-3-carbonitrile]: the IC50 is 65 nM in assay [1], more than 240000 nM in assay [2] and 1900 nM in assay [3].
The matching figures for `Cn1c(=O)c(C#N)c(N2CCN(Cc3ccc(O)c(Cl)c3)CC2)c2nc(Cl)ccc21` [Example 354, 6-chloro-4-{4-[(3-chloro-4-hydroxyphenyl)methyl]piperazin-1-yl}-1-methyl-2-oxo-1,2-dihydro-1,5-naphthyridine-3-carbonitrile]: 110 nM, more than 240000 nM and 2500 nM.
Turning to `Cn1c(=O)c(C#N)c(N2CCN(Cc3ccc(O)c(C(F)(F)F)c3)CC2)c2nc(Cl)ccc21` [Example 355, 6-chloro-4-(4-{[4-hydroxy-3-(trifluoromethyl)phenyl]methyl}piperazin-1-yl)-1-methyl-2-oxo-1,2-dihydro-1,5-naphthyridine-3-carbonitrile], the half-maximal inhibitory concentration (IC50) is 7100 nM in assay [1], more than 240000 nM in assay [2] and 2800 nM in assay [3].
For `Cc1cc(CN2CCN(c3c(C#N)c(=O)n(C)c4ccc(Cl)nc34)CC2)ccc1O` [Example 356, 6-chloro-4-{4-[(4-hydroxy-3-methylphenyl)methyl]piperazin-1-yl}-1-methyl-2-oxo-1,2-dihydro-1,5-naphthyridine-3-carbonitrile], the IC50 in assay [1] was 300 nM; in assay [2], more than 240000 nM; in assay [3], 3000 nM.
On the same counts, the results for `Cn1c(=O)c(C#N)c(N2CCN(Cc3cccc4nc[nH]c34)CC2)c2nc(Cl)ccc21` [Example 359, 4-{4-[(1H-1,3-benzodiazol-7-yl)methyl]piperazin-1-yl}-6-chloro-1-methyl-2-oxo-1,2-dihydro-1,5-naphthyridine-3-carbonitrile] are 19000 nM, more than 240000 nM and 8000 nM.
As for `Cn1c(=O)c(C#N)c(N2CCN(Cc3cccc4nc[nH]c34)CC2)c2nc(Br)ccc21` [Example 360], the IC50 was 48000 nM in assay [1], more than 240000 nM in assay [2] and 9600 nM in assay [3].
With `Cn1c(=O)c(C#N)c(N2CCN(Cc3cc(Cl)cc(Cl)c3O)CC2)c2nc(Br)ccc21` [Example 366, 6-bromo-4-{4-[(3,5-dichloro-2-hydroxyphenyl)methyl]piperazin-1-yl}-1-methyl-2-oxo-1,2-dihydro-1,5-naphthyridine-3-carbonitrile], the IC50 in assay [1] is 1300 nM; in assay [2] it was 160000 nM; in assay [3], more than 100000 nM.
As to `Cn1c(=O)c(C#N)c(N2CCN(Cc3cc(Cl)ccc3O)CC2)c2nc(Br)ccc21` [Example 367, 6-bromo-4-{4-[(5-chloro-2-hydroxyphenyl)methyl]piperazin-1-yl}-1-methyl-2-oxo-1,2-dihydro-1,5-naphthyridine-3-carbonitrile], the IC50 is 220 nM in assay [1], more than 240000 nM in assay [2] and more than 100000 nM in assay [3].
